The NIST ThermoML archive (doi:10.1016/j.jct.2012.11.014)
± gives the expanded uncertainty stated by the source.

Assays:
[1] = for speed of sound / viscosity / mass density: 101 kPa, Liquid; for speed of sound: Frequency=2 MHz, Linear variable-path acoustic interferometer; for viscosity: Oscillating disk viscometry; for mass density: Vibrating tube method; for Normal melting temperature: Crystal, visual observation
[2] = xn = mol fraction of the nth substance listed; conditions: 101 kPa, Liquid, x2 = 0; for speed of sound: Frequency=2 MHz, Linear variable-path acoustic interferometer; for viscosity: Oscillating disk viscometry; for mass density: Vibrating tube method

C[S+](C)[O-] [dimethyl sulfoxide]
[1]
Conditions | mass density [kg/m3] | speed of sound [m/s] | viscosity [mPa·s]
298.15 K | 1095.37 ± 1 | 1496 ± 3 | 1.99 ± 0.13
303.15 K | 1092.41 ± 1 | 1472 ± 3 | 1.8 ± 0.11
308.15 K | 1086.06 ± 1 | 1460 ± 3 | 1.65 ± 0.1
313.15 K | 1081.43 ± 1 | 1442 ± 3 | 1.54 ± 0.1

C[NH+](C)C.O=S(=O)([O-])O [trimethylammonium hydrogen sulfate]
[1]
Conditions | mass density [kg/m3] | speed of sound [m/s] | viscosity [mPa·s]
298.15 K | 1467.58 ± 1.2 | 1564 ± 3 | 5.1 ± 0.33
303.15 K | 1463.57 ± 1.2 | 1560 ± 3 | 4.48 ± 0.29
308.15 K | 1463.5 ± 1.2 | 1556 ± 3 | 3.94 ± 0.27
313.15 K | 1455.63 ± 1.2 | 1552 ± 3 | 3.16 ± 0.25

Conditions | Normal melting temperature [°C]
[1] | 129.00 ± 1

C[S+](C)[O-] [dimethyl sulfoxide] + C[NH+](C)C.O=S(=O)([O-])O
[2]
Conditions | mass density [kg/m3] | speed of sound [m/s] | viscosity [mPa·s]
298.15 K | 1095.37 ± 1 | 1496 ± 3 | 1.99 ± 0.13
303.15 K | 1092.41 ± 1 | 1472 ± 3 | 1.8 ± 0.11
308.15 K | 1086.06 ± 1 | 1460 ± 3 | 1.65 ± 0.1
313.15 K | 1081.43 ± 1 | 1442 ± 3 | 1.54 ± 0.1

C[NH+](C)C.O=P([O-])(O)O [trimethylammonium dihydrogen phosphate]
[1]
Conditions | mass density [kg/m3] | speed of sound [m/s] | viscosity [mPa·s]
298.15 K | 1353.61 ± 1.1 | 1672 ± 3 | 7.64 ± 0.52
303.15 K | 1350.62 ± 1.1 | 1660 ± 3 | 6.46 ± 0.44
308.15 K | 1347.59 ± 1.1 | 1661 ± 3 | 5.61 ± 0.37
313.15 K | 1344.52 ± 1.1 | 1664 ± 3 | 5.07 ± 0.32

Conditions | Normal melting temperature [°C]
[1] | 116.00 ± 1

C[S+](C)[O-] [dimethyl sulfoxide] + C[NH+](C)C.O=P([O-])(O)O
[2]
Conditions | mass density [kg/m3] | speed of sound [m/s] | viscosity [mPa·s]
298.15 K | 1095.37 ± 1 | 1496 ± 3 | 1.99 ± 0.13
303.15 K | 1092.41 ± 1 | 1472 ± 3 | 1.8 ± 0.11
308.15 K | 1086.06 ± 1 | 1460 ± 3 | 1.65 ± 0.1
313.15 K | 1081.43 ± 1 | 1442 ± 3 | 1.54 ± 0.1

CC(=O)[O-].C[NH+](C)C [trimethylammonium acetate]
[1]
Conditions | mass density [kg/m3] | speed of sound [m/s] | viscosity [mPa·s]
298.15 K | 1053.85 ± 1 | 1544 ± 3 | 2.76 ± 0.18
303.15 K | 1049.87 ± 1 | 1514 ± 3 | 2.37 ± 0.16
308.15 K | 1045.81 ± 1 | 1508 ± 3 | 2.06 ± 0.14
313.15 K | 1041.7 ± 1 | 1490 ± 3 | 1.83 ± 0.12

C[S+](C)[O-] [dimethyl sulfoxide] + CC(=O)[O-].C[NH+](C)C
[2]
Conditions | mass density [kg/m3] | speed of sound [m/s] | viscosity [mPa·s]
298.15 K | 1095.37 ± 1 | 1496 ± 3 | 1.99 ± 0.13
303.15 K | 1092.41 ± 1 | 1472 ± 3 | 1.8 ± 0.11
308.15 K | 1086.06 ± 1 | 1460 ± 3 | 1.65 ± 0.1
313.15 K | 1081.43 ± 1 | 1442 ± 3 | 1.54 ± 0.1
